From ChEMBL document CHEMBL1130799, “Stability of acetal and non acetal-type analogs of artemisinin in simulated stomach acid” (Bioorg Med Chem Lett, 1998) come the findings set out here.

Structures are written as SMILES. Values after ≈ are worked out from the molar mass of the structure shown.

Series [1] can be described thus: Half life was determined. Conditions: rat. The series is classed as ADME.
Another series has as its system Plasmodium falciparum. In words: In vitro antimalarial activity against Plasmodium falciparum. Format: functional, organism-based.

Consider `CCCC[C@H]1O[C@@H]2O[C@]3(C)CC[C@H]4[C@H](C)CC[C@@H]([C@H]1C)[C@@]24OO3`, for which the half-life – broadly, how long it takes for the measured level to halve – in series [1] was 165 h. Besides, half-maximal inhibition with Plasmodium falciparum (IC50) was put at 1.15 ng/mL (≈ 3.54 nM).

`C[C@H]1[C@@H](CCCCC(=O)O)O[C@@H]2O[C@]3(C)CCC4[C@H](C)CC[C@@H]1[C@]42OO3` (stereo partly specified) had a half-life in series [1] of 374 h. In the series with Plasmodium falciparum, half-maximal inhibition (IC50) required 1.28 ng/mL (≈ 3.47 nM).

With `C[C@H]1[C@@H](CCCC(=O)O)O[C@@H]2O[C@]3(C)CCC4[C@H](C)CC[C@@H]1[C@]42OO3` (stereo partly specified), the half-life in series [1] is 387 h. In addition, in the series on Plasmodium falciparum, the IC50 (commonly the concentration at which inhibition is half-maximal) stood at 1.3 ng/mL (≈ 3.67 nM).

Compound `C[C@@H]1CC[C@H]2[C@@H](C)CO[C@@H]3O[C@]4(C)CCC1[C@]32OO4` (stereo partly specified) gave a half-life in series [1] of 213 h. In the series with Plasmodium falciparum, half-maximal inhibition (IC50) required 0.15 ng/mL (≈ 0.559 nM).

In the case of `C[C@H]1[C@@H](Cc2ccccc2)O[C@@H]2O[C@]3(C)CCC4[C@H](C)CC[C@@H]1[C@]42OO3` (stereo partly specified), the half-life in series [1] is 286 h. The compound also registered an IC50 in the series on Plasmodium falciparum below 0.17 ng/mL.

As to `CCO[C@H]1O[C@@H]2OC3(C)CCC4[C@H](C)CC[C@@H]([C@H]1C)[C@]42OO3` (single isomer, unassigned), the half-life in series [1] is 11 h. This compound also had an IC50 in the series on Plasmodium falciparum of 0.16 ng/mL (≈ 0.512 nM).

On to `C[C@H]1[C@@H](OCc2ccc(C(=O)O)cc2)O[C@@H]2OC3(C)CCC4[C@H](C)CC[C@@H]1[C@]42OO3` (single isomer, unassigned), for which the half-life in series [1] is 13.1 h. This compound had a 50% inhibitory concentration (IC50) in the series on Plasmodium falciparum of 1.38 ng/mL (≈ 3.3 nM).

Take `C[C@@H]1CC[C@H]2[C@@H](C)C(=O)O[C@@H]3O[C@@]4(C)CC[C@@H]1[C@]32OO4` [ARTEMISININ]: in series [1], the half-life was 23.5 h.

The compound `C[C@H]1[C@@H](O)O[C@@H]2O[C@@]3(C)CC[C@H]4[C@H](C)CC[C@@H]1[C@@]24OO3` [ARTENIMOL] showed a half-life in series [1] of 17.2 h.
